Results from US4234724A, “Cephalosporin analogues and processes for the preparation thereof” (Fujisawa Pharmaceutical Company, Limited, priority 1977, dated 1980).
Converted amounts (≈) assume the structure as drawn.

Assays:
Assay in all cases: In vitro antibacterial activity, two-fold agar-plate dilution method
Assay type in all cases: cell-based
[1] = system: E. coli 31; conditions: Escherichia coli, HI-agar, 37° C., 20 hours, 10^6 viable cells per ml
Experimental: (§1) In vitro antibacterial activity was determined by the two-fold agar-plate dilution method as described below.
(§2) One loopful of an overnight culture of each test strain in Trypticase-soy broth (10^6 viable cells per ml.) was streaked on heart infusion agar (HI-agar) containing graded concentrations of antibiotics, and the minimum inhibitory concentration (MIC) was expressed in terms of μg/ml after incubation at 37° C. for 20 hours.

[2] = system: Kl. pneumoniae 20; conditions: Klebsiella pneumoniae, HI-agar, 37° C., 20 hours, 10^6 viable cells per ml
Experimental: as §1, §2

[3] = system: Pr. mirabilis 18; conditions: Proteus mirabilis, HI-agar, 37° C., 20 hours, 10^6 viable cells per ml
Experimental: as §1, §2

[4] = system: Pr. vulgaris 2; conditions: Proteus vulgaris, HI-agar, 37° C., 20 hours, 10^6 viable cells per ml
Experimental: as §1, §2

Work on `CON=C(C(=O)NC1C(=O)N2C(C(=O)O)=CCOC12)c1csc(N)n1` (stereo not drawn) [(1), 7β-[2-Methoxyimino-2-(2-aminothiazol-4-yl)acetamid]-1-oxadethia-3-cephem-4-carboxylic acid (syn isomer)] yielded an MIC [1] of 0.05 µg/mL (≈ 0.136 µM), an MIC [2] of 0.1 µg/mL (≈ 0.272 µM) and an MIC [3] of 0.05 µg/mL (≈ 0.136 µM). The MIC [4] was 0.2 µg/mL (≈ 0.544 µM).

For `CCON=C(C(=O)NC1C(=O)N2C(C(=O)O)=CCOC12)c1csc(N)n1` (stereo not drawn) [(2), 7β-[2-Ethoxyimino-2-(2-aminothiazol-4-yl)acetamido]-1-oxadethia-3-cephem-4-carboxylic acid (syn isomer)], the MIC [1] was 0.05 µg/mL (≈ 0.131 µM), the MIC [2] was 0.025 µg/mL (≈ 0.0656 µM) and the MIC [3] was 0.05 µg/mL (≈ 0.131 µM). For the same molecule, the MIC [4] was 0.05 µg/mL (≈ 0.131 µM).

For `CC(C)ON=C(C(=O)NC1C(=O)N2C(C(=O)O)=CCOC12)c1csc(N)n1` (stereo not drawn) [(3), 7β-[2-Isopropoxyimino-2-(2-aminothiazol-4-yl)acetamido]-1-oxadethia-3-cephem-4-carboxylic acid (syn isomer)], the MIC [1] was 0.2 µg/mL (≈ 0.506 µM), the MIC [2] was 0.05 µg/mL (≈ 0.126 µM) and the MIC [3] was 0.1 µg/mL (≈ 0.253 µM). The MIC [4] was 0.1 µg/mL (≈ 0.253 µM).

Molecule `CON=C(C(=O)NC1C(=O)N2C(C(=O)O)=CCOC12)c1nsc(N)n1` (stereo not drawn) [(4), 7β-[2-Methoxyimino-2-(5-amino-1,2,4-thiadiazol-3-yl)acetamido]-1-oxadethia-3-cephem-4-carboxylic acid (syn isomer)] has an MIC [1] of 0.025 µg/mL (≈ 0.0679 µM), an MIC [2] of 0.05 µg/mL (≈ 0.136 µM) and an MIC [3] of 0.1 µg/mL (≈ 0.271 µM). For the same molecule, the MIC [4] was 0.1 µg/mL (≈ 0.271 µM).

For `CON=C(C(=O)NC1C(=O)N2C(C(=O)O)=CCOC12)c1nccc(N)n1` (stereo not drawn) [(5), 7β-[2-Methoxyimino-2-(4-aminopyrimidin-2-yl)acetamido]-1-oxadethia-3-cephem-4-carboxylic acid (syn isomer)], the MIC [1] was 0.025 µg/mL (≈ 0.069 µM), the MIC [2] was 0.05 µg/mL (≈ 0.138 µM) and the MIC [3] was 0.05 µg/mL (≈ 0.138 µM). For the same molecule, the MIC [4] was 0.1 µg/mL (≈ 0.276 µM).
